Data from paper PMC3465347, “Regulation of NF-κB Activation through a Novel PI-3K-Independent and PKA/Akt-Dependent Pathway in Human Umbilical Vein Endothelial Cells” (PLoS ONE, 2012).

Key:
[1] = system: human endothelial cells (HUVECs); test: MTT cytotoxicity assay; type: cell-based
Protocol: The cytotoxicity of MPG and its derivatives was analyzed by colorimetric assay using MTT (Thiazolyl blue tetrazolium bromide) reagent as described previously. All experiments were performed at least 3 times in triplicate wells. From this assay, the percentage viability (% viability) of the cells at various concentrations of each compound was determined by normalization to control wells that contained cells incubated in vehicle (0.25% DMSO or cell culture medium) and which were considered 100% viable. The highest concentration at which the viability of the cells was >95% was denoted as the maximum tolerable concentration for that compound.

[2] = system: TNF-α-induced ICAM-1 expression on human endothelial cells; test: Cell-ELISA for ICAM-1 expression; type: cell-based
Protocol: The endothelial cells were incubated with or without MPG and its derivatives at various concentrations for 2 h followed by treatment with TNF-α (10 ng/ml) for 16 h for ICAM-1 and VCAM-1 expression and 4 h for E-selectin expression. A Cell-ELISA was used to assess the expression of ICAM-1, VCAM-1 and E-selectin on the surface of endothelial cells as described previously.

[3] = system: ICAM-1 mRNA in endothelial cells; test: RT-PCR of ICAM-1 transcript; type: cell-based, human; conditions: 400 µM pretreatment, TNF-α 10 ng/ml 4 h
Protocol: In order to examine whether MPTAG reduced the mRNA transcript levels of cell adhesion molecules genes, the endothelial cells were pretreated with 400 µM MPTAG for 2 h before induction with TNF-α for 4 h followed by RT-PCR. RNA was isolated from MPTAG-treated cells according to a modified guanidinium thiocyanate procedure. The expression of the transcripts for ICAM-1, VCAM-1 and E-selectin was evaluated by RT-PCR [45]. β-Actin levels expressed under similar conditions were used as a loading control.

[4] = system: NF-κBp65 subunit translocation in HUVECs; test: NF-κB p65 nuclear translocation (western blot, immunocytochemistry); type: cell-based, human; conditions: 400 µM, TNF-α-induced
Protocol: The endothelial cells were subjected to the indicated treatments followed by induction with TNF-α for indicated time points or 30 mins. The cells were then washed with PBS and dislodged using a cell scraper. The cytoplasmic and nuclear extracts were prepared as described previously, [46].
To study the effect of MPTAG on nuclear translocation of NF-κBp65 subunit in presence of TNF-α-stimulation, the HUVECs were seeded on gelatinized glass bottom 6-well plate at a cell density of 0.3×10^6 cells/ml. Following day, media was changed and MPTAG was added to the cells for 2 h. After the end of drug pretreatment, cells were induced with TNF-α for 45 mins. The cell monolayers were washed with PBS (phosphate buffered saline containing 1 mM CaCl2 and 1 mM MgCl2) and were fixed in a solution, containing 4% paraformaldehyde in 120 mM sodium phosphate buffer pH 7.2–7.4, for 20 mins at room temperature. The cells were then permeabilized using a high salt buffer, containing 0.45 M NaCl and 20 mM sodium phosphate buffer pH 7.2–7.4, 0.3% Triton X-100 and 0.2% gelatin, for 1 h at room temperature. Following this, the cells were incubated with anti-NF-κBp65 antibody for 2 h at room temperature. […] The fluorescent signals were then quantitated by selecting the nuclear and cytoplasmic regions in different fields using the NTS imaging software. […]

[5] = system: NF-κB p65 phosphorylation in endothelial cells; test: p65 phosphorylation western blot; type: cell-based, human; conditions: 400 µM pretreatment
Protocol: (§1) Nuclear and cytoplasmic extracts were fractionated on SDS-PAGE with equal amount of proteins per well and transferred onto PVDF membranes and those membranes were incubated with appropriate primary antibodies and treated with HRP conjugated secondary antibodies followed by detection with DAB-H2O2 system. β-tubulin, α-actin and Lamin B1 were used as loading controls. Antibodies against NF-κBp65, phosphoNF-κBp65, IκBα, phosphoIκBα, IKK-β, Akt, phosphoAkt (Ser473) and phosphoAkt (Thr308) were used.

IKK-β = target: T1, IKK-β (Homo sapiens, UniProt O14920); test: Direct IKK-β kinase assay on immunoprecipitated IKK-β; type: biochemical; conditions: immunoprecipitated IKK-β incubated with MPTAG
T1 construct: Endogenous IKK complexes were immunoprecipitated in the following reaction mixtures; endogenous in cells; host or cells: HUVEC (uninduced and TNF-α-induced), anti-IKK-β immunoprecipitate
Protocol: In brief, confluent HUVECs were incubated with or without MPTAG and were stimulated with TNF-α (10 ng/ml) for 15 mins. The cells were washed and lysed in Lysis buffer containing 50 mM HEPES, pH 7.6, 10% glycerol, 1 mM sodium orthovanadate, 100 mM NaCl, 1% NP-40, 1 mM EDTA and protease inhibitor cocktail and allowed to swell on ice for 45 mins. Following centrifugation at 13,000 rpm for 45 mins, the supernatants were collected as “total cell extracts” and stored at −70°C. Immunoprecipitation was performed as per the instructions of Protein G immunoprecipitation kit (Sigma Aldrich, USA). Endogenous IKK complexes were immunoprecipitated in the following reaction mixtures: 100–300 µg of total cell extracts were incubated with 2–4 µg anti-IKK-β or PKAα antibody in 100 µl 1× IP buffer. After incubation for 16 h at 4°C with constant shaking, 50 µl of activated protein G beads were added and the mixture was incubated under rotation for an additional 3 h at 4°C.
Kinase assay was performed as previously described. Immunoprecipitates from 100 µg of total cell extracts were used for kinase assays. The reaction mixture consisted of kinase buffer (20 mM Tris Cl, pH 7.6, 1 mM EDTA, 1 mM sodium orthovanadate, 20 mM MgCl2, 2 mM DTT), 2 µg GST-IκBα(1–54), 5 µM ATP and 1 µCi [γ ^32P] ATP in a volume of 30 µl. […]

[6] = system: Akt phosphorylation in HUVECs; test: Akt phosphorylation western blot; type: cell-based, human
Protocol: as §1

p38 MAPK = p38 MAPK activation western blot; type: cell-based, human; conditions: MPTAG pretreatment

T1 sequence (O14920 whole entry): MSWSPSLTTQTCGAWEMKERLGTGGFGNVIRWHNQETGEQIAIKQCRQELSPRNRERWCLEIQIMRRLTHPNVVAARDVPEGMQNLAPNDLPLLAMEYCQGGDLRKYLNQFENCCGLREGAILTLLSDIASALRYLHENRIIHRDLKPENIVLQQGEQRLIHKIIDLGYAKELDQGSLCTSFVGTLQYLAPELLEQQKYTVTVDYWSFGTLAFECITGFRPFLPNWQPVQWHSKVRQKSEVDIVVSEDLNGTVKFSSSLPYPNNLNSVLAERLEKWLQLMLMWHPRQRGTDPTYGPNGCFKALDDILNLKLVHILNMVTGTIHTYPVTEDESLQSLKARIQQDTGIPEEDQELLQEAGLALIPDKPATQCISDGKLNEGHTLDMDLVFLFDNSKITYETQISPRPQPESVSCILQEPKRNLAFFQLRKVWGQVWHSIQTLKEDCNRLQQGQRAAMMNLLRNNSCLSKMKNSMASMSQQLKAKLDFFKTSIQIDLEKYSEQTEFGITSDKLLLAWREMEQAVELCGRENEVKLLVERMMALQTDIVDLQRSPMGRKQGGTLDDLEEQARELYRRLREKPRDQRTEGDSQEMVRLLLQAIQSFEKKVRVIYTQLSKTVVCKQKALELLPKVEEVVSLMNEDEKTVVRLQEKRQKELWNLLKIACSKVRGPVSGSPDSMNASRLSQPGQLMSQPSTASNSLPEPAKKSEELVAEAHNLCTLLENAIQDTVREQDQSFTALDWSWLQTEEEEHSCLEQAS

In the case of `CC(=O)OC[C@H]1O[C@@H](Oc2c(C)occc2=O)[C@H](OC(C)=O)[C@@H](OC(C)=O)[C@@H]1OC(C)=O` [MPTAG, 2-methyl-pyran-4-one-3-O-β-D-2′,3′,4′,6′-tetra-O-acetyl glucopyranoside], the “morphology and viability in HUVECs” value ([1]; 400 µM) is reported as “without affecting”, the “cytotoxicity compared to parent compound MPG and the other two derivatives” value ([1]; MTT, human endothelial cells) is reported as “less cytotoxic” and the “inhibition of ICAM-1” value ([2]; added 2–4 h prior to TNF-α stimulation, data not shown) is reported as “maximum inhibition”. The “rank among derivatives for inhibition of TNF-α-induced ICAM-1, VCAM-1, E-selectin expression and neutrophil adhesion” value ([2]; human endothelial cells, Table S2) was “most active derivative”, the “TNF-α-induced ICAM-1 mRNA level” value [3] was “significantly reduced” and the “translocation of NF-κBp65 subunit into the nucleus” value [4] was “prevented the translocation”. The “TNF-α-induced p65 phosphorylation in the cytoplasm” value [5] was “inhibits p65 phosphorylation”, the “activity of IKK-β by direct interaction” value (IKK-β) was “did not affect” and the “protein levels of Akt” value ([6]; 400 µM) was “without affecting”. For the same compound, the “inhibitory effect of MPTAG on TNF-α-induced Akt phosphorylation when H-89 added prior” value ([6]; H-89 added prior to MPTAG) was “completely abolished”, the “TNF-α-induced phosphorylation of Akt at Ser473” value ([6]; MPTAG 400 µM, TNF-α 30 mins) was “inhibited” and the “TNF-α-induced phosphorylation of Akt at Thr308” value ([6]; MPTAG 400 µM, TNF-α 30 mins) was “inhibited”. The “TNF-α-induced Akt phosphorylation (Thr308), independently of wortmannin” value ([6]; with or without wortmannin before MPTAG) was “dose-dependently inhibited” and the “TNF-α-induced p38 activation” value (p38 MAPK) was “no effect”.
